Blank lines part the entries; values can stand above or below the compound they belong to.
System: 598228-144-R-J1-PDC complex spheroid viability
Experiment: Anticancer human tumor 598228-144-R-J1-PDC patient-derived serous endometrial adenocarcinoma cell line growth inhibition [GQUAD]
Conditions: for IC50: curve of first compound; for viability, T/C: stronger effect = lower value
Procedure, shortened: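 Multi-cell-type spheroids of tumor cells with HUVEC and mesenchymal stem cells, treated with drug combinations. Concentrations descend in half-log steps from near clinical Cmax, or from 10 microM where Cmax is unknown; viability read-out.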

[1] = second compound 0.0316 µM, first compound 0.0316 µM
[2] = second compound 0.0316 µM, first compound 0.1 µM
[3] = second compound 0.0316 µM, first compound 0.316 µM
[4] = second compound 0.0316 µM, first compound 1 µM
[5] = second compound 0.0316 µM, first compound 3.16 µM
[6] = second compound 0.0316 µM, first compound 10 µM
[7] = second compound 0.1 µM, first compound 0.0316 µM
[8] = second compound 0.1 µM, first compound 0.1 µM
[9] = second compound 0.1 µM, first compound 0.316 µM
[10] = second compound 0.1 µM, first compound 1 µM
[11] = second compound 0.1 µM, first compound 3.16 µM
[12] = second compound 0.1 µM, first compound 10 µM
[13] = second compound 0.316 µM, first compound 0.0316 µM
[14] = second compound 0.316 µM, first compound 0.1 µM
[15] = second compound 0.316 µM, first compound 0.316 µM
[16] = second compound 0.316 µM, first compound 1 µM
[17] = second compound 0.316 µM, first compound 3.16 µM
[18] = second compound 0.316 µM, first compound 10 µM
[19] = second compound 1 µM, first compound 0.0316 µM
[20] = second compound 1 µM, first compound 0.1 µM
[21] = second compound 1 µM, first compound 0.316 µM
[22] = second compound 1 µM, first compound 1 µM
[23] = second compound 1 µM, first compound 3.16 µM
[24] = second compound 1 µM, first compound 10 µM
[25] = second compound 3.16 µM, first compound 0.0316 µM
[26] = second compound 3.16 µM, first compound 0.1 µM
[27] = second compound 3.16 µM, first compound 0.316 µM
[28] = second compound 3.16 µM, first compound 1 µM
[29] = second compound 3.16 µM, first compound 3.16 µM
[30] = second compound 3.16 µM, first compound 10 µM
[31] = second compound 10 µM, first compound 0.0316 µM
[32] = second compound 10 µM, first compound 0.1 µM
[33] = second compound 10 µM, first compound 0.316 µM
[34] = second compound 10 µM, first compound 1 µM
[35] = second compound 10 µM, first compound 3.16 µM
[36] = second compound 10 µM, first compound 10 µM
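Also: spheroids exposed to the agents for one week before reading.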
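For viability, T/C in this document: percent of vehicle DMSO control viability so 100% = untreated growth.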

Compound: COc1ccc([C@@H](O)c2cc(-c3ncnc4cc(N5CCOCC5)ccc34)c(F)cc2Cl)nn1 + CN(C)c1ccc(Nc2c3ccc(NC(=O)CCN4CCCC4)cc3nc3cc(NC(=O)CCN4CCCC4)ccc23)cc1
IC50 (second compound 0.0316 µM): 2600 nM
IC50 (second compound 0.1 µM): 3830 nM
IC50 (second compound 0.316 µM): 2300 nM
IC50 (second compound 1 µM): 2300 nM
IC50 (second compound 3.16 µM): 2460 nM
IC50 (second compound 10 µM): 790 nM
viability, T/C [1]: 96.4%
viability, T/C [2]: 77.6%
viability, T/C [3]: 73.4%
viability, T/C [4]: 68.2%
viability, T/C [5]: 44%
viability, T/C [6]: 32.5%
viability, T/C [7]: 121%
viability, T/C [8]: 94.4%
viability, T/C [9]: 90.5%
viability, T/C [10]: 68.4%
viability, T/C [11]: 52.2%
viability, T/C [12]: 36.4%
viability, T/C [13]: 89.8%
viability, T/C [14]: 91.1%
viability, T/C [15]: 79.3%
viability, T/C [16]: 64.4%
viability, T/C [17]: 44.9%
viability, T/C [18]: 29.5%
viability, T/C [19]: 110%
viability, T/C [20]: 91.6%
viability, T/C [21]: 76.3%
viability, T/C [22]: 53.3%
viability, T/C [23]: 52%
viability, T/C [24]: 33.7%
viability, T/C [25]: 117%
viability, T/C [26]: 108%
viability, T/C [27]: 103%
viability, T/C [28]: 58.8%
viability, T/C [29]: 53.6%
viability, T/C [30]: 26.2%
viability, T/C [31]: 106%
viability, T/C [32]: 73.6%
viability, T/C [33]: 76.3%
viability, T/C [34]: 43.3%
viability, T/C [35]: 26.4%
viability, T/C [36]: 20.1%

IC50 (second compound 0.0316 µM): 103 nM
IC50 (second compound 0.1 µM): 114 nM
IC50 (second compound 0.316 µM): 66.6 nM
IC50 (second compound 1 µM): 34.5 nM
IC50 (second compound 3.16 µM): < 31.6 nM
IC50 (second compound 10 µM): < 31.6 nM
Compound: O=C(NO)c1cnc(N2CCN(S(=O)(=O)c3ccc4ccccc4c3)CC2)nc1 + Cc1cnc(CNC(=O)c2c(=O)c3ccc(N4CCCN(C)CC4)nc3n3c2sc2ccccc23)cn1
viability, T/C [1]: 92.8%
viability, T/C [2]: 49.6%
viability, T/C [3]: 22.8%
viability, T/C [4]: 0.83%
viability, T/C [5]: 0.39%
viability, T/C [6]: 0.19%
viability, T/C [7]: 80.1%
viability, T/C [8]: 52%
viability, T/C [9]: 25.3%
viability, T/C [10]: 1.24%
viability, T/C [11]: 0.16%
viability, T/C [12]: 0.23%
viability, T/C [13]: 69.4%
viability, T/C [14]: 38.7%
viability, T/C [15]: 16.6%
viability, T/C [16]: 0.27%
viability, T/C [17]: 0.14%
viability, T/C [18]: 0.14%
viability, T/C [19]: 51.6%
viability, T/C [20]: 30.6%
viability, T/C [21]: 0.25%
viability, T/C [22]: 0.31%
viability, T/C [23]: 0.15%
viability, T/C [24]: 0.19%
viability, T/C [25]: 38.1%
viability, T/C [26]: 0.34%
viability, T/C [27]: 0.31%
viability, T/C [28]: 0.23%
viability, T/C [29]: 0.19%
viability, T/C [30]: 0.21%
viability, T/C [31]: 0.42%
viability, T/C [32]: 0.28%
viability, T/C [33]: 0.56%
viability, T/C [34]: 0.4%
viability, T/C [35]: 0.29%
viability, T/C [36]: 0.25%

IC50 (second compound 0.0316 µM): > 10000 nM
IC50 (second compound 0.1 µM): > 10000 nM
IC50 (second compound 0.316 µM): 9020 nM
IC50 (second compound 1 µM): > 10000 nM
IC50 (second compound 3.16 µM): > 10000 nM
IC50 (second compound 10 µM): < 31.6 nM
Compound: O=C(c1cc(Cc2n[nH]c(=O)c3ccccc23)ccc1F)N1CCN(C(=O)C2CC2)CC1 + Cc1cnc(CNC(=O)c2c(=O)c3ccc(N4CCCN(C)CC4)nc3n3c2sc2ccccc23)cn1
viability, T/C [1]: 82.4%
viability, T/C [2]: 89.4%
viability, T/C [3]: 73%
viability, T/C [4]: 68.7%
viability, T/C [5]: 84.4%
viability, T/C [6]: 63.2%
viability, T/C [7]: 70.9%
viability, T/C [8]: 75.6%
viability, T/C [9]: 63.8%
viability, T/C [10]: 63.1%
viability, T/C [11]: 63%
viability, T/C [12]: 67.8%
viability, T/C [13]: 57%
viability, T/C [14]: 60.9%
viability, T/C [15]: 68.1%
viability, T/C [16]: 65.2%
viability, T/C [17]: 58.8%
viability, T/C [18]: 49.1%
viability, T/C [19]: 62.2%
viability, T/C [20]: 51.3%
viability, T/C [21]: 55.7%
viability, T/C [22]: 54.1%
viability, T/C [23]: 72.3%
viability, T/C [24]: 56%
viability, T/C [25]: 58.1%
viability, T/C [26]: 57.8%
viability, T/C [27]: 67.9%
viability, T/C [28]: 53.2%
viability, T/C [29]: 57.3%
viability, T/C [30]: 48.9%
viability, T/C [31]: 41.5%
viability, T/C [32]: 49.6%
viability, T/C [33]: 40.6%
viability, T/C [34]: 56.8%
viability, T/C [35]: 73.1%
viability, T/C [36]: 47.3%
